Like-named read-outs stand apart in the source and are kept apart here.
System: Chlamydomonas reinhardtii
Test: 8-point dose response assay (0.25-30 μM)
Assay type: cell-based
Parameters: reference not given here
Conditions: for Dose Response Assay 0.25 μM: 0.25 μM compound; for Dose Response Assay 0.625 μM: 0.625 μM compound; for Dose Response Assay 2.5 μM: 2.5 μM compound; for Dose Response Assay 5 μM: 5 μM compound; for Dose Response Assay 10 μM: 10 μM compound; for Dose Response Assay 15 μM: 15 μM compound; for Dose Response Assay 30 μM: 30 μM compound
Method: A large scale in vivo high throughput screen (HTS) was performed to identify small compounds that stimulate lipid production and accumulation using the model organism Chlamydomonas reinhardtii. The HTS employed a 384-well microplate format in which cells were allowed to grow in the presence of the test compounds at 10 μM final concentration for 72 hours.
The screening library included 43,736 compounds (ChemBridge, Corp). […] A sub-set of compounds were retested using an 8-point dose response assay (0.25-30 μM). Compounds were further assessed visually using a Nikon Ti-inverted microscope (60×) to reconfirm lipid droplet accumulation was induced.

[1] = 8-point dose response, Nile Red lipid accumulation
[2] = 1.25 μM compound, 8-point dose response, Nile Red lipid accumulation

SMILES	Dose Response Assay 0.25 μM [1]	Dose Response Assay 0.625 μM [1]	Dose Response Assay 1.25 μM [2]	Dose Response Assay 2.5 μM [1]	Dose Response Assay 5 μM [1]	Dose Response Assay 10 μM [1]	Dose Response Assay 15 μM [1]	Dose Response Assay 30 μM [1]	Dose Response Assay 1.25 μM
CC(=O)c1nc2cc([N+](=O)[O-])ccc2n1Cc1ccccc1 [Compound 23]	1.02	1	0.79	0.78	1.04	1.1	1.43	1.15	–
Cc1cc(C)c(NC(=O)COc2ccccc2[N+](=O)[O-])c(C)c1 [Compound 35]	1.09	1.49	1.23	1.96	1.91	2.65	2.5	2.51	–
CC(C)c1ccc(CN2CCN(C)CC2)cc1 [Compound 70]	0.87	1.55	–	4.4	8.64	7.57	11.05	11.07	2.19
CCc1ccc(CN2CCN(c3ccccc3C)CC2)cc1 [Compound 84]	0.92	0.89	–	2.5	2.05	1.64	2.19	1.34	1
COc1ccc(C(=O)NCCN2CCOCC2)cc1[N+](=O)[O-] [Compound 24]	1.13	0.87	0.84	0.97	0.99	1.18	1.19	1.25	–
Oc1ccc(Cl)cc1CN1CCN(Cc2ccccc2)CC1 [Compound 107]	0.98	1.01	–	2.05	2.31	2.48	3.07	3.06	1.23
O=C(Nc1ccc([N+](=O)[O-])cc1)c1ccccc1Cl [Compound 11]	1.02	1.12	0.97	0.93	1.46	2.78	2.28	1.78	–
Cc1ccc(C(=O)c2ccc(N3CCN(C)CC3)c([N+](=O)[O-])c2)cc1 [Compound 46]	1.23	0.96	0.94	1.61	2.31	2.75	2.63	1.78	–
Cc1c(NC(=O)COc2ccc(Br)cc2)cccc1[N+](=O)[O-] [Compound 47]	0.90	0.81	0.91	1.3	0.95	1.37	1.27	1.19	–
Cc1c(C(=O)Nc2ccc(F)c(F)c2)cccc1[N+](=O)[O-] [Compound 17]	1.09	1.03	0.89	0.89	1.07	0.92	1.04	1.67	–
O=C(Nc1ccc([N+](=O)[O-])cc1)c1cccc(Cl)c1Cl [Compound 38]	1.06	1.38	1.23	2.23	2.64	2.94	2.61	2	–
O=C(Nc1ccc(Cc2ccncc2)cc1)c1ccc([N+](=O)[O-])cc1Cl [Compound 37]	1.04	0.97	1.39	1.85	1.93	1.76	1.16	1.15	–
COc1ccccc1N1CCN(Cc2ccc(Cl)cc2)CC1 [Compound 68]	1.07	1.05	–	2.15	2.1	1.95	2.74	2.03	1.28
